Measured values as given in patent EP0462830B1, “Cyclic ether derivatives” (ZENECA LIMITED, priority 1990, dated 1991).

Experiments:
5-LO [1] = target: T1, 5-LO (Homo sapiens, UniProt P09917); test: Test b): heparinised human blood challenged with calcium ionophore A23187, radioimmunoassay of LTB₄; assay type: cell-based; conditions: read-out: IC₅₀ (LTB₄)
T1 construct: incubating a test compound with heparinised human blood, prior to challenge with the calcium ionophore A23187; endogenous in cells; host or cells: leukocytes in heparinised human whole blood
T1 sequence (P09917 1-674): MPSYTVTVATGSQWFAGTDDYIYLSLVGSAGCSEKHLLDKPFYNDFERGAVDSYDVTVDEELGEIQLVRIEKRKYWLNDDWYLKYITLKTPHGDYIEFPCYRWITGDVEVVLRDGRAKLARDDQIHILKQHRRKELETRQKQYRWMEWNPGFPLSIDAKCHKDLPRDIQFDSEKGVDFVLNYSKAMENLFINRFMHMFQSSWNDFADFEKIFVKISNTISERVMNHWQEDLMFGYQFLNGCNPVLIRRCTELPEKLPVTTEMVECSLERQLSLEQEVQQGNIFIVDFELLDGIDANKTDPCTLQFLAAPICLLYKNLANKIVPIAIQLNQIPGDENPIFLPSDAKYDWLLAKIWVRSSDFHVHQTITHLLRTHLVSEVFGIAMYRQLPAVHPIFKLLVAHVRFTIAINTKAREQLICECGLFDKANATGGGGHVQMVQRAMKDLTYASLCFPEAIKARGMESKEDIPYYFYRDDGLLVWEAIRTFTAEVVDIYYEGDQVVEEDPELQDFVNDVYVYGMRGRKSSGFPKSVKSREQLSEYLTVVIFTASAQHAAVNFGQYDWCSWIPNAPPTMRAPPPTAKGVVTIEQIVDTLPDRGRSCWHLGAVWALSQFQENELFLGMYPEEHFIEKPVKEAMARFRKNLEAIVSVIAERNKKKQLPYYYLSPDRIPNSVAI
Description: This test provides a measure of the intrinsic inhibitory properties of a test compound against soluble 5-LO in an extracellular environment. • b) An in vitro assay system involving incubating a test compound with heparinised human blood, prior to challenge with the calcium ionophore A23187 and then indirectly measuring the inhibitory effects on 5-LO by assaying the amount of LTB₄ using specific radioimmunoassays described by Carey and Forder (F. Carey and R.A. Forder, Prostaglandins, Leukotrienes Med., 1986, 22, 57; Prostaglandins, 1984, 28, 666; Brit. J. Pharmacol. 1985, 84, 34P) which involve the use of a protein-LTB₄ conjugate produced using the procedure of Young et alia (Prostaglandins, 1983, 26(4), 605-613). […] This test provides an indication of the effects of a test compound against 5-LO and also cyclooxygenase in the presence of blood cells and proteins.

5-LO [2] = test: Test g): zymosan-induced liberation of LTB₄ within a subcutaneous air pouch of male rats; assay type: in vivo; conditions: rat air pouch

With `CSC1(c2cccc(OCc3ccc4ccccc4c3)c2)CCOCC1` [Example 1, 4-methylthio-4-[3-(naphth-2-ylmethoxy)phenyl]tetrahydropyran] the IC50 (5-LO [1]) was 50 nM and the “oral ED₅₀(LTB₄)” value (5-LO [2]) was 8 mg/kg.
